Source: ChEMBL document CHEMBL3244298, “Adamantylthiourea derivatives as antiviral agents” (J Med Chem, 1979)
The source made the active and inactive calls. The calls are words filed in the database; no cut-off is given here.

Tests used:
[1] = tested on: unidentified influenza virus; assay: Antiviral activity against Influenza virus A2/Asian/J305 infected in ip dosed mouse assessed as concentration required to cause survival at 21 days; type: functional; details: 504 h, read-out: PD50
[2] = tested on: unidentified influenza virus; assay: Antiviral activity against Influenza virus A2/Asian/J305 infected in mouse assessed as survival at 100 mg/kg, ip administered single dose at 5 mins post viral infection followed by 2 doses per day for next 3 days relative to control; type: functional; details: route intraperitoneal
Semliki Forest virus = assay: Antiviral activity against Semliki forest virus infected in ip dosed mouse assessed as protection against viral infection; type: functional, organism-based
Mus musculus [3] = assay: Toxicity in mouse assessed as CNS related side effects at 100 mg/kg, ip and 300 mg/kg, po measured for 24 hrs; type: organism-based, Central nervous system; details: in vivo
Respirovirus muris = assay: Antiviral activity against Sendai virus infected in ip dosed mouse assessed as protection against viral infection; type: functional, organism-based
[4] = tested on: unidentified influenza virus; assay: Antiviral activity against Influenza virus A2/Asian/J305 infected in mouse assessed as survival at 100 mg/kg, ip administered two doses at 24 hrs post viral infection followed by single dose for subsequent days relative to control; type: functional; details: route intraperitoneal
[5] = tested on: unidentified influenza virus; assay: Antiviral activity against Influenza virus A2/Asian/J305 infected in rhesus monkey kidney cells assessed as concentration required to reduce viral titer by >= 2 logarithms after 4 days by tube dilution method; type: functional
Herpesviridae sp. = assay: Antiviral activity against Herpes simplex virus infected in ip dosed mouse assessed as protection against viral infection; type: functional, organism-based
Enterovirus = assay: Antiviral activity against Rhinovirus 42 infected in human WI38 cells assessed as growth inhibition after 7 days by tube dilution method; type: functional, organism-based; details: WI-38
[6] = tested on: unidentified influenza virus; assay: Antiviral activity against Influenza virus A2/Asian/J305 infected in po dosed mouse assessed as concentration required to cause survival at 21 days; type: functional; details: 504 h, read-out: PD50
Influenza B virus = assay: Antiviral activity against Influenza B virus (B/Lee/40) infected in rhesus monkey kidney cells assessed as growth inhibition after 4 days by tube dilution method; type: functional, organism-based; details: B/Lee/1940
[7] = tested on: unidentified influenza virus; assay: Antiviral activity against Influenza virus A2/Asian/J305 infected in mouse assessed as survival at 100 mg/kg, ip administered two doses at 48 hrs post viral infection followed by single dose for subsequent days relative to control; type: functional; details: route intraperitoneal
[8] = tested on: unidentified influenza virus; assay: Antiviral activity against Influenza virus A2/Asian/J305 infected in mouse assessed as survival at 50 mg/kg, ip administered 3 doses on day of viral infection followed by 2 doses on next day and single dose per day for next 2 days relative to control; type: functional; details: 48 h, route intraperitoneal
[9] = tested on: unidentified influenza virus; assay: Antiviral activity against Influenza virus A2/Asian/J305 infected in mouse assessed as survival at 200 mg/kg, ip administered 3 doses on day of viral infection followed by 2 doses on next day and single dose per day for next 2 days relative to control; type: functional; details: 48 h, route intraperitoneal
Mus musculus [10] = assay: Toxicity in mouse assessed as tremors at > 600 mg/kg, ip measured for 24 hrs; type: organism-based; design: dose 600 mg/kg, route intraperitoneal; details: in vivo
[11] = tested on: unidentified influenza virus; assay: Antiviral activity against Influenza virus A2/Asian/J305 infected in mouse assessed as survival at 200 mg/kg, ip administered single dose at 5 mins post viral infection followed by 2 doses per day for next 3 days relative to control; type: functional; details: route intraperitoneal
Mus musculus [12] = assay: Toxicity in mouse assessed as ataxia at > 600 mg/kg, ip measured for 24 hrs; type: organism-based; design: dose 600 mg/kg, route intraperitoneal; details: in vivo
Mus musculus [13] = assay: Toxicity in mouse assessed as CNS related side effects up to 1000 mg/kg, po measured for 24 hrs; type: organism-based, Central nervous system; design: dose 1000 mg/kg, route oral; details: in vivo
[14] = tested on: unidentified influenza virus; assay: Antiviral activity against Influenza virus A2/Asian/J305 infected in mouse assessed as survival at 200 mg/kg, ip administered two doses at 24 hrs post viral infection followed by single dose for subsequent days relative to control; type: functional; details: route intraperitoneal
[15] = tested on: unidentified influenza virus; assay: Antiviral activity against Influenza virus A2/Asian/J305 infected in mouse assessed as survival at 200 mg/kg, ip administered two doses at 48 hrs post viral infection followed by single dose for subsequent days relative to control; type: functional; details: route intraperitoneal
[16] = Acute toxicity in po dosed mouse measured for 24 hrs; type: organism-based; details: in vivo
[17] = Acute toxicity in ip dosed mouse measured for 24 hrs; type: organism-based; details: in vivo

NC(=O)NC(=S)NC12CC3CC(CC(C3)C1)C2
ED50 [1]: > 400 mg/kg

O=C(NC(=S)NC12CC3CC(CC(C3)C1)C2)Oc1ccccc1
ED50 [1]: > 400 mg/kg

CC(=O)Nc1ccc(S(=O)(=O)NC(=S)NC23CC4CC(CC(C4)C2)C3)cc1
ED50 [1]: > 200 mg/kg

NC12CC3CC(CC(C3)C1)C2 [AMANTADINE]
survival at 100 mg/kg [2]: 67%
Activity (Semliki Forest virus): inactive
Activity (Mus musculus [3]): Toxic
Activity (Respirovirus muris): inactive
survival at 100 mg/kg [4]: 77%
Activity [5]: 0.05 µg/mL
Activity (Herpesviridae sp.): inactive
growth inhibition (GI) (Enterovirus): inactive
ED50 [6]: 4 mg/kg
growth inhibition (GI) (Influenza B virus): inactive
ED50 [1]: 6 mg/kg
survival at 100 mg/kg [7]: 0%
survival at 50 mg/kg [8]: 72%

O=C1CSC(NC23CC4CC(CC(C4)C2)C3)=N1
ED50 [1]: > 200 mg/kg

Nc1ccc(S(=O)(=O)NC(=S)NC23CC4CC(CC(C4)C2)C3)cc1
survival at 200 mg/kg [9]: 77%
Activity (Semliki Forest virus): inactive
Activity (Mus musculus [10]): Toxic
survival at 200 mg/kg [11]: 36%
Activity (Mus musculus [12]): Toxic
Activity (Respirovirus muris): inactive
Activity (Mus musculus [13]): Non-toxic
Activity [5]: 12.5 µg/mL
Activity (Herpesviridae sp.): inactive
growth inhibition (GI) (Enterovirus): inactive
survival at 200 mg/kg [14]: 28%
ED50 [6]: 35 mg/kg
growth inhibition (GI) (Influenza B virus): inactive
survival at 200 mg/kg [15]: 0%
LD50 at 24 h [16]: > 1000 mg/kg
ED50 [1]: 16 mg/kg
LD50 at 24 h [17]: 775 mg/kg

CCOC(=O)NC(=S)NC12CC3CC(CC(C3)C1)C2
ED50 [1]: > 400 mg/kg

Cc1ccc(S(=O)(=O)NC(=S)NC23CC4CC(CC(C4)C2)C3)cc1
ED50 [1]: > 200 mg/kg

NC(=S)NC12CC3CC(CC(C3)C1)C2
ED50 [1]: > 200 mg/kg

CCOC(=O)/N=C(/NC12CC3CC(CC(C3)C1)C2)SC
ED50 [1]: 158 mg/kg
